{"source": "PubChem BioAssay AID248", "about": "(DTP/NCI, 2004)", "test_system": "L1210 leukemia ip in BDF1 mice, survival T/C", "assay": "NCI In Vivo Anticancer Drug Screen. Data for tumor model L1210 Leukemia (intraperitoneal) in B6D2F1 (BDF1) mice", "details": "endpoint: mean survival time, higher = longer survival", "how_it_was_run": "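Tumor was transplanted into mice, which were then dosed with test compound or vehicle alone. Survival was recorded for each group, and the treated figure was expressed relative to the control figure.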", "note": "Values joined by “and” are separate entries in the source; they are usually repeats but may differ in a detail not shown here. Equal entries are not always repeated. Toxic doses and inconclusive results are not listed."}
{"smiles": "CN(Cc1cnc2nc(N)nc(N)c2n1)c1c(Cl)cc(C(=O)NC(CCC(=O)O)C(=O)O)cc1Cl", "note": "(centres undefined)", "values": [{"measurement": "T/C", "setting": "dose: 40.0 mg/kg/injection, schedule: Q01DX009 (ip), vehicle: carboxymethylcellulose (CMC)", "value": "161 % of control"}, {"measurement": "T/C", "setting": "dose: 40.0 mg/kg/injection, schedule: Q01DX Z (ip), vehicle: methylcellulose (MC)", "value": "169 % of control"}, {"measurement": "T/C", "setting": "dose: 40.0 mg/kg/injection, schedule: Q01DX Z (oral), vehicle: alkali diluted with saline", "value": "102 % of control"}, {"measurement": "T/C", "setting": "dose: 50.0 mg/kg/injection, schedule: Q## X003 (ip), vehicle: other", "value": "124 % of control"}, {"measurement": "T/C", "setting": "dose: 50.0 mg/kg/injection, schedule: Q## X016 (ip), vehicle: other", "value": "121 % of control"}, {"measurement": "T/C", "setting": "dose: 67.5 mg/kg/injection, schedule: Q01DX Z (ip), vehicle: saline", "value": "150 % of control"}, {"measurement": "T/C", "setting": "dose: 70.0 mg/kg/injection, schedule: Q01DX001 (ip), vehicle: methylcellulose (MC)", "value": "116 % of control"}, {"measurement": "T/C", "setting": "dose: 70.0 mg/kg/injection, schedule: Q01DX Z (ip), vehicle: clinical formulation", "value": "103 % of control"}, {"measurement": "T/C", "setting": "dose: 70.0 mg/kg/injection, schedule: Q07DX Z (ip), vehicle: methylcellulose (MC)", "value": "116 % of control"}, {"measurement": "T/C", "setting": "dose: 80.0 mg/kg/injection, schedule: Q01DX005 (ip), vehicle: carboxymethylcellulose (CMC)", "value": "158 % of control"}, {"measurement": "T/C", "setting": "dose: 80.0 mg/kg/injection, schedule: Q01DX006 (iv), vehicle: alkali diluted with saline", "value": "165 % of control"}, {"measurement": "T/C", "setting": "dose: 80.0 mg/kg/injection, schedule: Q01DX Z (im), vehicle: alkali diluted with saline", "value": "113 % of control"}, {"measurement": "T/C", "setting": "dose: 80.0 mg/kg/injection, schedule: Q01DX Z (oral), vehicle: alkali diluted with saline", "value": "94 % of control"}, {"measurement": "T/C", "setting": "dose: 80.0 mg/kg/injection, schedule: Q01DX Z (sc), vehicle: alkali diluted with saline", "value": "112 % of control"}, {"measurement": "T/C", "setting": "dose: 90.0 mg/kg/injection, schedule: Q01DX Z (ip), vehicle: saline", "value": "94 % of control"}, {"measurement": "T/C", "setting": "dose: 100.0 mg/kg/injection, schedule: Q01DX001 (sc), vehicle: carboxymethylcellulose (CMC)", "value": "111 % of control"}, {"measurement": "T/C", "setting": "dose: 100.0 mg/kg/injection, schedule: Q04DX003 (ip), vehicle: alkali diluted with saline", "value": "124 % of control"}, {"measurement": "T/C", "setting": "dose: 120.0 mg/kg/injection, schedule: Q01DX001 (ip), vehicle: carboxymethylcellulose (CMC)", "value": "117 % of control"}, {"measurement": "T/C", "setting": "dose: 120.0 mg/kg/injection, schedule: Q03DX Z (ip), vehicle: methylcellulose (MC)", "value": "153 % of control"}, {"measurement": "T/C", "setting": "dose: 120.0 mg/kg/injection, schedule: Q## X008 (ip), vehicle: other", "value": "112 % of control"}, {"measurement": "T/C", "setting": "dose: 140.0 mg/kg/injection, schedule: Q01DX001 (ip), vehicle: methylcellulose (MC)", "value": "116 % of control"}, {"measurement": "T/C", "setting": "dose: 140.0 mg/kg/injection, schedule: Q01DX Z (ip), vehicle: clinical formulation", "value": "110 % of control"}, {"measurement": "T/C", "setting": "dose: 140.0 mg/kg/injection, schedule: Q07DX Z (ip), vehicle: methylcellulose (MC)", "value": "123 % of control"}, {"measurement": "T/C", "setting": "dose: 200.0 mg/kg/injection, schedule: Q01DX001 (sc), vehicle: carboxymethylcellulose (CMC)", "value": "114 % of control"}, {"measurement": "T/C", "setting": "dose: 200.0 mg/kg/injection, schedule: Q01DX001 (sc), vehicle: other", "value": "121 % of control"}, {"measurement": "T/C", "setting": "dose: 200.0 mg/kg/injection, schedule: Q04DX003 (ip), vehicle: carboxymethylcellulose (CMC)", "value": "157 % of control"}, {"measurement": "T/C", "setting": "dose: 200.0 mg/kg/injection, schedule: Q## X016 (ip), vehicle: other", "value": "162 % of control"}, {"measurement": "T/C", "setting": "dose: 240.0 mg/kg/injection, schedule: Q01DX001 (ip), vehicle: alkali diluted with saline", "value": "115 % of control"}, {"measurement": "T/C", "setting": "dose: 240.0 mg/kg/injection, schedule: Q01DX001 (ip), vehicle: other", "value": "113 % of control"}, {"measurement": "T/C", "setting": "dose: 240.0 mg/kg/injection, schedule: Q## X008 (ip), vehicle: other", "value": "112 % of control"}, {"measurement": "T/C", "setting": "dose: 285.0 mg/kg/injection, schedule: Q01DX001 (ip), vehicle: carboxymethylcellulose (CMC)", "value": "110 % of control"}, {"measurement": "T/C", "setting": "dose: 400.0 mg/kg/injection, schedule: Q01DX001 (ip), vehicle: olive oil, sesame oil, peanut oil", "value": "114 % of control"}, {"measurement": "T/C", "setting": "dose: 400.0 mg/kg/injection, schedule: Q01DX001 (sc), vehicle: other", "value": "121 % of control"}, {"measurement": "T/C", "setting": "dose: 400.0 mg/kg/injection, schedule: Q04DX003 (ip), vehicle: alkali diluted with saline", "value": "166 % of control"}, {"measurement": "T/C", "setting": "dose: 400.0 mg/kg/injection, schedule: Q07DX Z (ip), vehicle: olive oil, sesame oil, peanut oil", "value": "97 % of control"}, {"measurement": "T/C", "setting": "dose: 434.0 mg/kg/injection, schedule: Q01DX001 (ip), vehicle: carboxymethylcellulose (CMC)", "value": "121 % of control"}, {"measurement": "T/C", "setting": "dose: 480.0 mg/kg/injection, schedule: Q01DX001 (ip), vehicle: alkali diluted with saline", "value": "122 % of control"}, {"measurement": "T/C", "setting": "dose: 560.0 mg/kg/injection, schedule: Q01DX001 (ip), vehicle: methylcellulose (MC)", "value": "123 % of control"}, {"measurement": "T/C", "setting": "dose: 800.0 mg/kg/injection, schedule: Q01DX001 (ip), vehicle: olive oil, sesame oil, peanut oil", "value": "109 % of control and 120 % of control"}, {"measurement": "T/C", "setting": "dose: 800.0 mg/kg/injection, schedule: Q04DX003 (ip), vehicle: alkali diluted with saline", "value": "168 % of control"}, {"measurement": "T/C", "setting": "dose: 800.0 mg/kg/injection, schedule: Q07DX Z (ip), vehicle: olive oil, sesame oil, peanut oil", "value": "106 % of control"}, {"measurement": "T/C", "setting": "dose: 800.0 mg/kg/injection, schedule: Q## X003 (ip), vehicle: other", "value": "169 % of control"}, {"measurement": "T/C", "setting": "dose: 800.0 mg/kg/injection, schedule: Q## X016 (ip), vehicle: other", "value": "165 % of control"}, {"measurement": "T/C", "setting": "dose: 875.0 mg/kg/injection, schedule: Q01DX001 (ip), vehicle: alkali diluted with saline", "value": "158 % of control"}, {"measurement": "T/C", "setting": "dose: 960.0 mg/kg/injection, schedule: Q01DX001 (ip), vehicle: carboxymethylcellulose (CMC)", "value": "158 % of control"}, {"measurement": "T/C", "setting": "dose: 1200.0 mg/kg/injection, schedule: Q01DX001 (ip), vehicle: olive oil, sesame oil, peanut oil", "value": "115 % of control and 122 % of control"}, {"measurement": "T/C", "setting": "dose: 1200.0 mg/kg/injection, schedule: Q07DX Z (ip), vehicle: olive oil, sesame oil, peanut oil", "value": "95 % of control"}, {"measurement": "T/C", "setting": "dose: 1600.0 mg/kg/injection, schedule: Q04DX003 (ip), vehicle: alkali diluted with saline", "value": "98 % of control"}, {"measurement": "T/C", "setting": "dose: 1600.0 mg/kg/injection, schedule: Q07DX Z (ip), vehicle: olive oil, sesame oil, peanut oil", "value": "101 % of control"}]}
